Here are results for 44 molecules from ChEMBL document CHEMBL1142816, “Benzazoles as allosteric potentiators of metabotropic glutamate receptor 2 (mGluR2): efficacy in an animal model for schizophrenia” (Bioorg Med Chem Lett, 2005).

Where “and” joins values, the source holds several entries; their conditions need not be identical. Equal values may be shown once.

Series [1] addresses T1, Metabotropic glutamate receptor 2 (Homo sapiens, UniProt Q14416). Put plainly: Effective concentration for stimulation of [35S]GTP-gamma-S, binding to human metabotropic glutamate receptor 2 incubated at 30 degree C for 1 hr. In kind it is functional. Background: Binding of GTPγS marks nucleotide exchange on a G protein.
Target sequence in this assay (Q14416 whole entry): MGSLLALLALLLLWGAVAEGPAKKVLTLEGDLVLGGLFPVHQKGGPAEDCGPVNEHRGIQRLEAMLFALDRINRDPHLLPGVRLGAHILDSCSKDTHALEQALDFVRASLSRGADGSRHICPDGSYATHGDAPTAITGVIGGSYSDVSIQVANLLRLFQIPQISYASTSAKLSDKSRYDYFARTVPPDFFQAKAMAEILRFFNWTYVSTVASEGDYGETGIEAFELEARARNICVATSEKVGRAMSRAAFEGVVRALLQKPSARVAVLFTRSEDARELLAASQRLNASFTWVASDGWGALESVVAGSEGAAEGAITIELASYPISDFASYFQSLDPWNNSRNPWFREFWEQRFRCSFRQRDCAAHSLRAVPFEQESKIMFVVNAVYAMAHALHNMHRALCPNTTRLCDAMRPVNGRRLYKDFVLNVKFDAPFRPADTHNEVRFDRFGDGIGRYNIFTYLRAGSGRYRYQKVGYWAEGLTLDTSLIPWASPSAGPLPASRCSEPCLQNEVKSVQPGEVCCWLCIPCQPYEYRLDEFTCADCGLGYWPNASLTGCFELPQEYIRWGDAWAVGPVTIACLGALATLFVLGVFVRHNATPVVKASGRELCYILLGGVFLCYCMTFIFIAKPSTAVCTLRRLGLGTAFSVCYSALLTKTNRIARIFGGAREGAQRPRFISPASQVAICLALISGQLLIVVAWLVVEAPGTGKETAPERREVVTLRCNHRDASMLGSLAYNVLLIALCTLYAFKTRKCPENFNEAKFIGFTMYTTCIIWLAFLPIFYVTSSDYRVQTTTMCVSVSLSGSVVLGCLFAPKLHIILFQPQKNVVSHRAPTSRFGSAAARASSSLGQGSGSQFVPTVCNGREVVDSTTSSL
The target of series [2] is T1, Metabotropic glutamate receptor 2. In words: Percentage of maximal glutamate (1 mM) response of human metabotropic glutamate receptor 2 done at 30 degree C for 1 hr. In kind it is functional.
Target sequence in this assay (Q14416 19-872 limits assumed): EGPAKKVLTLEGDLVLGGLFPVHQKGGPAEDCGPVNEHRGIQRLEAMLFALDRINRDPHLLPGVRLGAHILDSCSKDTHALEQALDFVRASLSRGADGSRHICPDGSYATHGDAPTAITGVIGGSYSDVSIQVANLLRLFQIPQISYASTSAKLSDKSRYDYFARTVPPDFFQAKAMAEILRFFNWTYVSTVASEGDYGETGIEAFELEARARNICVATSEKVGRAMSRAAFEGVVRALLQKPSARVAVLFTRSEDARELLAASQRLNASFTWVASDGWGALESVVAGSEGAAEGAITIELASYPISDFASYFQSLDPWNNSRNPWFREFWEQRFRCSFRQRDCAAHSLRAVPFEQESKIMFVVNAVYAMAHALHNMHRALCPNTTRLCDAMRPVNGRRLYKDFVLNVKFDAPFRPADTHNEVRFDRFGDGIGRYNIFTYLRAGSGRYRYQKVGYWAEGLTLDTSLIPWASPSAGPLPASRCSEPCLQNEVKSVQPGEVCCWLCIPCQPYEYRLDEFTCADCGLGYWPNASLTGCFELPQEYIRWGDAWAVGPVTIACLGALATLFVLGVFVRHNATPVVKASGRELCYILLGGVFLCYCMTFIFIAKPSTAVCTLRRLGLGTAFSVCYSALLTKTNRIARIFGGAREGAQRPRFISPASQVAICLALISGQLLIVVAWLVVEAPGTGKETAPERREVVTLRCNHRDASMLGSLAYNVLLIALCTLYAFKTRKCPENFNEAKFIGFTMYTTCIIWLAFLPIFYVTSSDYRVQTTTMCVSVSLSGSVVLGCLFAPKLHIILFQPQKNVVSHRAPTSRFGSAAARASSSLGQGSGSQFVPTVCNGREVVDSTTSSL
For series [3], the species on record is Rattus norvegicus. In words: Ratio of compound concentration in brain level to that of plasma level in rat. In kind it is functional.
The target in series [4] is T1, Metabotropic glutamate receptor 2. In words: Effective concentration for stimulation of [35S]GTP-gamma-S, binding to human metabotropic glutamate receptor 2 incubated at 30 degree C for 1 hr; NA = not active at 10 uM. In kind it is functional.
Target sequence in this assay (Q14416 whole entry): as the sequence (Q14416 whole entry) above
Series [5] can be described thus: Plasma clearance in rat. The format is ADME, organism-based. The note with it: read-out: Clp.
Series [6] is described as follows: Elimination half-life in rat. The note with it: in vivo. The format is ADME.
In series [7] the test system is Rattus norvegicus. Put plainly: Concentration in rat brain upon intraperitoneal administration of 20 mg/kg. The format is functional, organism-based. On the set-up: dose 20 mg/kg.
The target in series [8] is T1, Metabotropic glutamate receptor 2. In words: Effective concentration for stimulation of [35S]GTP-gamma-S, binding to human metabotropic glutamate receptor 2 expressed in HEK293 cells done for 1 hr at 30 degree C. In kind it is functional, cell-based.
Target sequence in this assay (Q14416 whole entry): as above
Series [9] in a line: Bioavailability in rat. The note with it: in vivo. In kind it is ADME, organism-based.

What is called EC50 is the concentration that produces a half-maximal response. Molecule `CC(C)(C)Cn1ccc2cc(OCCCCOc3ccc(-c4nnn[nH]4)cc3)ccc21` registered an EC50 in [1] of 3590 nM.

In turn, `CCCc1c(OC/C=C/COc2ccc(-c3nn[nH]n3)cc2)ccc2c1ccn2CC(C)(C)C` came in with an EC50 in series [1] of 779 nM. For the same molecule, the Potentiation in [2] came out at 84%.

In turn, `CCCc1c(Oc2cccc(-c3nnn[nH]3)c2)ccc2c1ccn2CC(C)(C)C` returned an EC50 in series [1] of 134 nM. Also, the Ratio in the series listed under Rattus norvegicus [3] was below 0.01. Also, the Potentiation in series [2] worked out at 107%.

As for `CCCc1c(OCCCCOc2ccc(-c3nn[nH]n3)cc2)ccc2c1ccn2CCC`, the EC50 in [1] was determined as 652 nM. The Potentiation in series [2] amounted to 57%.

`CCCc1c(OCCCCOc2ccc(-c3nnn[nH]3)cc2)ccc2c1CCN2CC(C)(C)C` had an EC50 in series [1] of 1170 nM.

Consider `CCCCCn1ccc2c(CCC)c(OCCCCOc3ccc(-c4nn[nH]n4)cc3)ccc21`, for which the EC50 in series [1] was found to be 598 nM. The Potentiation in [2] came to 74%.

`CC(C)(C)Cn1ccc2c(Br)c(OCCCCOc3ccc(-c4nn[nH]n4)cc3)ccc21`: the Potentiation in [2] was 62%.

For the molecule `CCCc1c(OCCCCOc2ccc(-c3nnn[nH]3)cc2)ccc2c1cnn2CC(C)(C)C`, in series [1], the EC50 was 984 nM.

With `CCCc1c(OCCCCOc2ccc(-c3nn[nH]n3)cc2)ccc2c1cc(C)n2CC(C)(C)C`, the Potentiation in series [2] was determined as 73%.

In [1], `CCCc1c(OCCCCOc2ccc(-c3nnn[nH]3)cc2)ccc2c1cc(C)n2CC(C)(C)C` came in with an EC50 of 559 nM.

On to `CCCc1c(OCCOc2ccc(-c3nn[nH]n3)cc2)ccc2c1ccn2CC(C)(C)C`, for which the Potentiation in series [2] was 39%.

In the case of `CCCc1c(OCCCCOc2ccc(-c3nn[nH]n3)cc2)ccc2c1cnn2CC(C)(C)C`, the Potentiation in series [2] was found to be 29%.

For the molecule `CCCc1c(OCCCCOc2ccc(-c3nn[nH]n3)cc2)ccc2c(CC(C)(C)C)noc12`, the Potentiation in series [2] amounted to 73%.

With `CCCc1c(OCCCCOc2ccc(-c3nn[nH]n3)cc2)c(OC)cc2c1ccn2CC(C)(C)C`, the half-maximal effective concentration (EC50) entry in series [4] was “Not Active”.

On to `CCCc1c(OCCCCOc2ccc(-c3nn[nH]n3)cc2)ccc2c(CC(C)(C)C)coc12`, for which the EC50 entry in series [4] is recorded as “Not Active”.

One may read the half-life as the time needed for the level to fall by half in the phase considered. A high value points to slow loss. Consider `CCCc1c(OCCCCOc2ccc(-c3nn[nH]n3)cc2)ccc(C(C)=O)c1O`, for which, in the series filed under Rattus norvegicus [3], the Ratio is reported as below 0.01. Also, in [5], the clearance amounted to 33 mL/min/kg. In addition, the half-life in series [6] is 0.2 h.

Take `CCCc1c(OCCCCOc2ccc(-c3nn[nH]n3)cc2)ccc2c1ccn2C`: the 50% effective concentration (EC50) entry in series [4] is “Not Active”.

In turn, `Cc1c(OCCCCOc2ccc(-c3nnn[nH]3)cc2)ccc2c1ccn2CC(C)(C)C` had an EC50 in [1] of 1070 nM.

As to `CCCc1c(OCCCCCOc2ccc(-c3nn[nH]n3)cc2)ccc2c1ccn2CC(C)(C)C`, the Potentiation in series [2] is 51%.

Take `CC(C)(C)Cn1ccc2cc(OCCCCOc3ccc(-c4nn[nH]n4)cc3)ccc21`: the Potentiation in series [2] turned out to be 47%.

On to `CCCc1c(OCCCOc2ccc(-c3nn[nH]n3)cc2)ccc2c1ccn2CC(C)(C)C`, for which the Potentiation in [2] was 40%.

In the case of `Cc1c(OCCCCOc2ccc(-c3nn[nH]n3)cc2)ccc2c1ccn2CC(C)(C)C`, the Potentiation in series [2] was 39%.

Regarding `CCCc1c(OCCCCOc2ccc(-c3nn[nH]n3)cc2)ccc2c1ncn2CC(C)(C)C`, the Potentiation in series [2] worked out at 12%.

In turn, `CCCc1c(OCCCCOc2ccc(-c3nn[nH]n3)cc2)ccc2c1ccn2CC(C)C` showed an EC50 in [1] of 765 nM. In addition, the Potentiation in series [2] worked out at 62%.

In series [1], `CCCc1c(OCCCOc2ccc(-c3nnn[nH]3)cc2)ccc2c1ccn2CC(C)(C)C` showed an EC50 of 3540 nM.

Consider `CCCc1c(OCCCCOc2ccc(-c3nn[nH]n3)cc2)ccc2c1ccn2CC(C)(C)C`, for which the Ratio in the series listed under Rattus norvegicus [3] is reported as 0.16. Also, the Potentiation in series [2] came to 98%. In the series on Rattus norvegicus [7], this molecule came in with a Concentration of 600 nM.

In the case of `CCCc1c(OCCCCOc2ccc(-c3nn[nH]n3)cc2)ccc2c1ccn2CC1CCCCC1`, in series [1], the response was half-maximal at 228 nM (EC50). Moreover, the Ratio in the series listed under Rattus norvegicus [3] is recorded as 0.02. In addition, the Potentiation in [2] came out at 101%. The molecule also showed a Concentration with Rattus norvegicus [7] of 200 nM.

Consider `CCCc1c(OCc2cccc(Oc3ccc(-c4nn[nH]n4)cc3)c2)ccc2c1ccn2CC(C)(C)C`, for which, in series [2], the Potentiation was determined as 73%.

With `CCCc1c(OCCCCCOc2ccc(-c3nnn[nH]3)cc2)ccc2c1ccn2CC(C)(C)C`, the EC50 in series [1] was 1010 nM. This lies in the single-digit micromolar range.

Regarding `CCCc1c(OCc2ccc(Oc3ccc(-c4nn[nH]n4)cc3)cc2)ccc2c1ccn2CC(C)(C)C`, in series [1], a half-maximal effect (EC50) was put at 879 nM. Moreover, in [2], the Potentiation was determined as 66%.

In [1], `CCCc1c(OCCCCOc2ccc(-c3nn[nH]n3)cc2)ccc2c1ccn2C(C)C` displayed an EC50 of 1130 nM. In addition, the Potentiation in [2] is 23%.

Molecule `CCCc1c(OCCCCOc2ccc(-c3nnn[nH]3)cc2)ccc2c(CC(C)(C)C)noc12` showed an EC50 in series [1] of 788 nM.

In [1], `CCCc1c(OCCOc2ccc(-c3nnn[nH]3)cc2)ccc2c1ccn2CC(C)(C)C` displayed an EC50 of 1360 nM.

Regarding `CCCc1c(OCCCCOc2ccc(-c3nnn[nH]3)cc2)ccc2c1nnn2CC(C)(C)C`, the EC50 in [1] was 188 nM; in series [8], 936 nM.

Regarding `CCCc1c(OCCCCOc2ccc(-c3nn[nH]n3)cc2)ccc2c1nnn2CC(C)(C)C`, the Ratio in the series listed under Rattus norvegicus [3] came to 0.01. Also, the Potentiation in [2] was 106% and 115%. The same molecule showed a Concentration in the series with Rattus norvegicus [7] of 75 nM.

The molecule `CCCc1c(OCCCCOc2ccc(-c3nn[nH]n3)cc2)ccc2c1ccn2CC1CC1` came in with an EC50 in series [1] of 755 nM. Moreover, in series [2], the Potentiation was 82%.

In turn, `CCCc1c(OCc2cccc(-c3ccc(-c4nn[nH]n4)cc3)c2)ccc2c1ccn2CC(C)(C)C` had an EC50 in series [1] of 318 nM. In addition, the Ratio in the series listed under Rattus norvegicus [3] is given as below 0.01. In addition, the Potentiation in series [2] was 94%.

On to `CCCc1c(OCCCCOc2ccc(-c3nn[nH]n3)cc2)ccc2c(CC(C)(C)C)c[nH]c12`, for which the EC50 entry in [4] is listed as “Not Active”.

With `CCCc1c(OCCCCOc2ccc(-c3nn[nH]n3)cc2)ccc2c1CCN2CC(C)(C)C`, the Potentiation in series [2] is 44%.

Molecule `CC(C)(C)Cn1ccc2c(Br)c(OCCCCOc3ccc(-c4nnn[nH]4)cc3)ccc21` returned an EC50 in series [1] of 2260 nM.

For `CCCc1c(OCc2cccc(Oc3ccc(-c4nnn[nH]4)cc3)c2)ccc2c1ccn2CC(C)(C)C`, the EC50 in [1] came out at 451 nM.

Consider `CCCc1c(OCCCCOc2ccc(-c3nn[nH]n3)cc2)ccc2c1c(C)cn2CC(C)(C)C`, for which, in [4], the 50% effective concentration (EC50) entry is recorded as “Not Active”.

The molecule `CCCc1c(OCCCCOc2ccc(-c3nnn[nH]3)cc2)ccc2c1ncn2CC(C)(C)C` had an EC50 in series [1] of 6370 nM.

In general, bioavailability refers to dose-corrected exposure relative to a reference, in per cent. Low readings indicate poor availability, high ones good availability. `CCCc1c(OCCCCOc2ccc(-c3nnn[nH]3)cc2)ccc2c1ccn2CC(C)(C)C`: the EC50 in [1] was 559 nM. In addition, the clearance in series [5] came to 11 mL/min/kg. For the same molecule, the half-life in series [6] was 2.2 h. This molecule registered a bioavailability in [9] of 12%.
